Patent publication US20250325534A1, “MICROBIOCIDAL TETRAHYDROISOQUINOLINE DERIVATIVES” (SYNGENTA CROP PROTECTION AG, priority 2021, published 2025)

Assays:
Botryotinia fuckeliana = Botryotinia fuckeliana (Botrytis cinerea) / liquid culture (gray mould); type: cell-based; settings: 72 h, growth inhibition photometrically 3-4 days after application, read-out: control of Botryotinia fuckeliana
Method: Example B2: Botryotinia Fuckeliana (Botrytis cinerea)/Liquid Culture (Gray Mould) Conidia of the fungus from cryogenic storage are directly mixed into a nutrient broth (Vogels broth). After placing a DMSO solution of test compound into a microtiter plate (96-well format), the nutrient broth containing the fungal spores is added. The test plates are incubated at 24° C. and the inhibition of growth is determined photometrically 3-4 days after application.

Glomerella lagenarium = Glomerella lagenarium (Colletotrichum lagenarium) / liquid culture (anthracnose); type: cell-based; settings: Colletotrichum orbiculare, 72 h, photometrically 3-4 days after application, read-out: control of Glomerella lagenarium
Method in brief: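 Conidia in potato dextrose broth added to test compound delivered as DMSO solution in microtiter plates; incubation at 24° C. Growth inhibition read photometrically 3-4 days after application.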

Phaeosphaeria nodorum = Phaeosphaeria nodorum (Septoria nodorum) / wheat / leaf disc preventative (glume blotch); type: in vivo; settings: Parastagonospora nodorum, foliar, inoculated 2 days after application
Method: Example B9: Phaeosphaeria nodorum (Septoria nodorum)/Wheat/Leaf Disc Preventative (Glume Blotch) Wheat leaf segments cv. Kanzler are placed on agar in a multiwell plate (24-well format) and sprayed with the formulated test compound diluted in water. The leaf disks are inoculated with a spore suspension of the fungus 2 days after application. The inoculated test leaf disks are incubated at 20° C. and 75% relative humidity under a light regime of 12 h light/12 h darkness in a climate cabinet and the activity of a compound is assessed as percent disease control compared to untreated when an appropriate level of disease damage appears in untreated check leaf disks (5-7 days after application).

Monographella nivalis = Monographella nivalis (Microdochium nivale) / liquid culture (foot rot cereals); type: cell-based; settings: 96 h, photometrically 4-5 days after application, read-out: control of Monographella nivalis
Method in brief: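 Microdochium nivale conidia in potato dextrose broth were added to test compound in DMSO and incubated at 24° C. Growth inhibition was measured photometrically 4-5 days after application.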

[1] = tested on: Mycosphaerella graminicola; assay: Mycosphaerella graminicola (Septoria tritici) / liquid culture (Septoria blotch); type: cell-based; settings: Zymoseptoria tritici, 96 h, photometrically 4-5 days after application, read-out: control of Mycosphaerella graminicola
Method in brief: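 Conidia from cryogenic storage mixed into potato dextrose broth, added to test compound in DMSO. Plates incubated at 24° C; growth inhibition read photometrically 4-5 days after application.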

Alternaria solani = Alternaria solani / tomato / leaf disc (early blight); type: in vivo; settings: foliar, inoculated 2 days after application, vs untreated control
Method: Example B1: Alternaria solani/Tomato/Leaf Disc (Early Blight) Tomato leaf disks cv. Baby are placed on agar in multiwell plates (24-well format) and sprayed with the formulated test compound diluted in water. The leaf disks are inoculated with a spore suspension of the fungus 2 days after application. The inoculated leaf disks are incubated at 23° C./21° C. (day/night) and 80% relative humidity under a light regime of 12 h/12 h (light/dark) in a climate cabinet and the activity of a compound is assessed as percent disease control compared to untreated when an appropriate level of disease damage appears on untreated check disk leaf disks (5-7 days after application).

Mycosphaerella arachidis = Mycosphaerella arachidis (Cercospora arachidicola) / liquid culture (early leaf spot); type: cell-based; settings: 96 h, photometrically 4-5 days after application, read-out: control of Mycosphaerella arachidis
Method in brief: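 Cryostored M. arachidis conidia in potato dextrose broth were added to compound applied as DMSO solution. Incubated at 24 °C; growth inhibition measured photometrically 4-5 days after application.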

Pyrenophora teres = Pyrenophora teres / barley / leaf disc preventative (net blotch); type: in vivo; settings: foliar, inoculated 2 days after application
Method: Example B16: Pyrenophora teres/Barley/Leaf Disc Preventative (Net Blotch) Barley leaf segments cv. Hasso are placed on agar in a multiwell plate (24-well format) and sprayed with the formulated test compound diluted in water. The leaf segments are inoculated with a spore suspension of the fungus 2 days after application. The inoculated leaf segments are incubated at 20° C. and 65% relative humidity under a light regime of 12 h light/12 h darkness in a climate cabinet and the activity of a compound is assessed as disease control compared to untreated when an appropriate level of disease damage appears in untreated check leaf segments (5-7 days after application).

Cn1cc([C@]2(C)CN(C(=O)c3cc(-c4ccc(F)cc4F)on3)Cc3ccccc32)cn1 (single isomer, unassigned) [Compound P-49]
≥ 80%: inhibition of growth at 20 ppm (Botryotinia fuckeliana) | inhibition of growth at 20 ppm (Glomerella lagenarium) | pest or weed control at 200 ppm (Phaeosphaeria nodorum) | inhibition of growth at 20 ppm (Monographella nivalis) | inhibition of growth at 20 ppm [1]

Cn1cc(C2CN(C(=O)c3cc(-c4ccc(F)cc4F)on3)Cc3ccccc32)cn1 (single isomer, unassigned) [Compound P-142, [5-(2,4-difluorophenyl)isoxazol-3-yl]-[4-(1-methylpyrazol-4-yl)-3,4-dihydro-1H-isoquinolin-2-yl]methanone]
≥ 80%: pest or weed control at 200 ppm (Alternaria solani) | inhibition of growth at 20 ppm (Botryotinia fuckeliana) | inhibition of growth at 20 ppm (Glomerella lagenarium) | pest or weed control at 200 ppm (Phaeosphaeria nodorum) | inhibition of growth at 20 ppm (Monographella nivalis) | inhibition of growth at 20 ppm (Mycosphaerella arachidis) | inhibition of growth at 20 ppm [1]

C[C@H]1c2ccccc2[C@@](C)(c2cnn(C)c2)CN1C(=O)c1cc(-c2ccccc2)on1 [Compound P-2, [(1S,4S)-1,4-dimethyl-4-(1-methylpyrazol-4-yl)-1,3-dihydroisoquinolin-2-yl]-(5-phenylisoxazol-3-yl)methanone]
≥ 80%: pest or weed control at 200 ppm (Alternaria solani) | pest or weed control at 200 ppm (Phaeosphaeria nodorum) | inhibition of growth at 20 ppm (Monographella nivalis) | inhibition of growth at 20 ppm (Mycosphaerella arachidis) | pest or weed control at 200 ppm (Pyrenophora teres) | inhibition of growth at 20 ppm [1]

CON=C(C)C1c2ccccc2C(c2cnn(C)c2)CN1C(=O)c1cc(-c2ccc(F)cc2F)on1 (stereo not drawn) [Compound P-10, [5-(2,4-difluorophenyl)isoxazol-3-yl]-[1-(N-methoxy-C-methyl-carbonimidoyl)-4-(1-methylpyrazol-4-yl)-3,4-dihydro-1H-isoquinolin-2-yl]methanone]
≥ 80%: pest or weed control at 200 ppm (Alternaria solani) | inhibition of growth at 20 ppm (Glomerella lagenarium) | pest or weed control at 200 ppm (Phaeosphaeria nodorum) | inhibition of growth at 20 ppm [1]

CON=C(C)c1c(C2CN(C(=O)c3cc(-c4ccc(F)cc4F)on3)Cc3ccccc32)cnn1C (stereo not drawn) [Compound P-13, [5-(2,4-difluorophenyl)isoxazol-3-yl]-[4-[5-(N-methoxy-C-methyl-carbonimidoyl)-1-methyl-pyrazol-4-yl]-3,4-dihydro-1H-isoquinolin-2-yl]methanone]
≥ 80%: pest or weed control at 200 ppm (Alternaria solani) | pest or weed control at 200 ppm (Phaeosphaeria nodorum) | inhibition of growth at 20 ppm (Monographella nivalis) | inhibition of growth at 20 ppm [1]

COc1ccc2c(c1)C(C)N(C(=O)c1cc(-c3ccc(F)cc3F)on1)CC2(C)c1cnn(C)c1 (stereo not drawn) [Compound P-18, [5-(2,4-difluorophenyl)isoxazol-3-yl]-[7-methoxy-1,4-dimethyl-4-(1-methylpyrazol-4-yl)-1,3-dihydroisoquinolin-2-yl]methanone]
≥ 80%: pest or weed control at 200 ppm (Alternaria solani) | inhibition of growth at 20 ppm (Glomerella lagenarium) | inhibition of growth at 20 ppm (Monographella nivalis) | inhibition of growth at 20 ppm (Mycosphaerella arachidis) | pest or weed control at 200 ppm (Pyrenophora teres) | inhibition of growth at 20 ppm [1]

COc1ccc2c(c1)C(C)(c1cnn(C)c1)CN(C(=O)c1cc(-c3ccc(F)cc3F)on1)C2C (stereo not drawn) [Compound P-40, [5-(2,4-difluorophenyl)isoxazol-3-yl]-[6-methoxy-1,4-dimethyl-4-(1-methylpyrazol-4-yl)-1,3-dihydroisoquinolin-2-yl]methanone]
≥ 80%: pest or weed control at 200 ppm (Phaeosphaeria nodorum) | inhibition of growth at 20 ppm (Monographella nivalis) | inhibition of growth at 20 ppm (Mycosphaerella arachidis) | inhibition of growth at 20 ppm [1]

COc1cc(F)ccc1-c1cc(C(=O)N2Cc3ccccc3C(c3cnn(C)c3C)C2)no1 (stereo not drawn) [Compound P-46, [4-(1,5-dimethylpyrazol-4-yl)-3,4-dihydro-1H-isoquinolin-2-yl]-[5-(4-fluoro-2-methoxy-phenyl)isoxazol-3-yl]methanone]
≥ 80%: pest or weed control at 200 ppm (Alternaria solani) | pest or weed control at 200 ppm (Phaeosphaeria nodorum) | inhibition of growth at 20 ppm (Monographella nivalis) | inhibition of growth at 20 ppm (Mycosphaerella arachidis) | inhibition of growth at 20 ppm [1]

Cn1cc(C2CN(C(=O)c3nnc(-c4ccccc4F)o3)Cc3ccccc32)cn1 (stereo not drawn) [Compound P-54, [5-(2-fluorophenyl)-1,3,4-oxadiazol-2-yl]-[4-(1-methylpyrazol-4-yl)-3,4-dihydro-1H-isoquinolin-2-yl]methanone]
≥ 80%: pest or weed control at 200 ppm (Pyrenophora teres) | inhibition of growth at 20 ppm [1]

Cn1cc(C2CN(C(=O)c3cc(-c4ccc(F)cc4F)on3)Cc3ccc(C#N)cc32)cn1 (stereo not drawn) [Compound P-62, 2-[5-(2,4-difluorophenyl)isoxazole-3-carbonyl]-4-(1-methylpyrazol-4-yl)-3,4-dihydro-1H-isoquinoline-6-carbonitrile]
≥ 80%: inhibition of growth at 20 ppm (Glomerella lagenarium) | pest or weed control at 200 ppm (Phaeosphaeria nodorum) | inhibition of growth at 20 ppm (Monographella nivalis) | inhibition of growth at 20 ppm [1]

Cc1nn(C)c(C)c1C1CN(C(=O)c2cc(-c3ccccc3F)on2)Cc2ccccc21 (stereo not drawn) [Compound P-117, [5-(2-fluorophenyl)isoxazol-3-yl]-[4-(1,3,5-trimethylpyrazol-4-yl)-3,4-dihydro-1H-isoquinolin-2-yl]methanone]
≥ 80%: inhibition of growth at 20 ppm (Glomerella lagenarium) | pest or weed control at 200 ppm (Phaeosphaeria nodorum) | inhibition of growth at 20 ppm (Monographella nivalis) | inhibition of growth at 20 ppm (Mycosphaerella arachidis) | pest or weed control at 200 ppm (Pyrenophora teres) | inhibition of growth at 20 ppm [1]

Cc1nn(C)c(C)c1C1CN(C(=O)c2cc(-c3ccc(F)cc3F)on2)Cc2ccccc21 (stereo not drawn) [Compound P-126, [5-(2,4-difluorophenyl)isoxazol-3-yl]-[4-(1,3,5-trimethylpyrazol-4-yl)-3,4-dihydro-1H-isoquinolin-2-yl]methanone]
≥ 80%: pest or weed control at 200 ppm (Alternaria solani) | inhibition of growth at 20 ppm (Glomerella lagenarium) | inhibition of growth at 20 ppm (Monographella nivalis) | inhibition of growth at 20 ppm (Mycosphaerella arachidis) | pest or weed control at 200 ppm (Pyrenophora teres) | inhibition of growth at 20 ppm [1]

Cn1cc(C2CN(C(=O)c3cc(-c4c(F)cc(F)cc4F)on3)Cc3ccccc32)cn1 (stereo not drawn) [Compound P-136, [4-(1-methylpyrazol-4-yl)-3,4-dihydro-1H-isoquinolin-2-yl]-[5-(2,4,6-trifluorophenyl)isoxazol-3-yl]methanone]
≥ 80%: pest or weed control at 200 ppm (Alternaria solani) | pest or weed control at 200 ppm (Phaeosphaeria nodorum) | inhibition of growth at 20 ppm (Monographella nivalis) | pest or weed control at 200 ppm (Pyrenophora teres) | inhibition of growth at 20 ppm [1]

Cc1ccc2c(c1)C(C)(c1cnn(C)c1)CN(C(=O)c1cc(-c3ccc(F)cc3F)on1)C2C (stereo not drawn) [Compound P-216, [5-(2,4-difluorophenyl)isoxazol-3-yl]-[1,4,6-trimethyl-4-(1-methylpyrazol-4-yl)-1,3-dihydroisoquinolin-2-yl]methanone]
≥ 80%: inhibition of growth at 20 ppm (Botryotinia fuckeliana) | inhibition of growth at 20 ppm (Glomerella lagenarium) | inhibition of growth at 20 ppm (Monographella nivalis) | pest or weed control at 200 ppm (Pyrenophora teres) | inhibition of growth at 20 ppm [1]

CCC1(c2cnn(C)c2)CN(C(=O)c2cc(-c3ccc(F)cc3F)on2)Cc2ccccc21 (stereo not drawn) [Compound P-221, [5-(2,4-difluorophenyl)isoxazol-3-yl]-[4-ethyl-4-(1-methylpyrazol-4-yl)-1,3-dihydroisoquinolin-2-yl]methanone]
≥ 80%: pest or weed control at 200 ppm (Phaeosphaeria nodorum) | inhibition of growth at 20 ppm (Mycosphaerella arachidis) | inhibition of growth at 20 ppm [1]

Cc1c(C2CN(C(=O)c3noc(-c4ccc(F)cc4F)n3)Cc3ccccc32)cnn1C (stereo not drawn) [Compound P-228, [5-(2,4-difluorophenyl)-1,2,4-oxadiazol-3-yl]-[4-(1,5-dimethylpyrazol-4-yl)-3,4-dihydro-1H-isoquinolin-2-yl]methanone]
≥ 80%: pest or weed control at 200 ppm (Alternaria solani) | inhibition of growth at 20 ppm (Glomerella lagenarium) | inhibition of growth at 20 ppm (Monographella nivalis) | inhibition of growth at 20 ppm (Mycosphaerella arachidis) | pest or weed control at 200 ppm (Pyrenophora teres) | inhibition of growth at 20 ppm [1]
